Patent US20050107289A1, “Anti-microbial peptides and compositions” (priority 2001, published 2005)
Non-standard residues stand in square brackets, D forms with d. Residues, ends and D or L forms follow the SMILES beside them.

What was measured:
[1] = tested on: S. aureus (MRSA) ATCC 33591; assay type: cell-based, Staphylococcus aureus; conditions: for MRSA MIC: ATCC 33591; for MRSA (in vitro activity): Table 9, media a: anti-microbial media-3 (AM-3)
Summary of the method: (§1)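 Broth microdilution (macrodilution in some cases) per NCCLS M7-A4; peptides 2-fold serially diluted in 5% DMSO/9% sucrose, ~400-2 μg/ml before dilution into broth; inoculum ~2.5×10^5 cfu/ml from overnight culture diluted 4000×.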

E. coli JM109(DE3) = assay type: cell-based, Escherichia coli; conditions: JM109
Description: (§2) The antimicrobial activity of the peptides was determined using a broth dilution assay essentially as descried in the guidelines of the National Committee for […] (NCCLS) [National Committee for Clinical Laboratory Standards. Methods for dilution antimicrobial susceptibility tests for bacteria that grow aerobically. Fourth edition. Approved Standard (1997). Document M7-A4. […] The microdilution method has the advantages of requiring less amount of peptide for each assay and the possibility of multiple simultaneous inoculations and was used in most studies. Several of the strains of bacteria tested are further described in Table 3.
(§3) Preparation of peptide solutions. Stock peptide solutions were prepared in 5% DMSO in aq. sucrose (9%). Determination of peptide concentrations was done by quantitative HPLC analysis using known concentrations of internal standards and/or by measuring UV absorption of tryptophane-containing peptide solutions in H2O (λ=280 εTrp: 5690). Serial 2-fold dilutions were made in the above DMSO/aq. sucrose (9%) mixture with concentrations ranging approximately 400-2 μg/ml and aliquots were dispensed in test tubes (100 μl) for the macrodilution test or in microtiter plates (20 μl) for the microdilution assays.
(§4) Inoculum preparation. Overnight cultures of different microorganisms grown in suitable media were diluted 4000 times to an approximate inoculum size of 2.5×10^5 cfu/ml.
(§5) Macrodilution method. Macrodilution methods were performed using procedures similar to those described in the National Committee for Clinical Laboratory Standards. Methods for dilution antimicrobial susceptibility tests for bacteria that grow aerobically. Fourth edition. Approved Standard (1997). Document M7-A4. (NCCLS,Villanova, Pa., 1997). Two ml aliquots of the above inoculum were dispensed to test tubes containing different peptide solutions.
(§6) Microdilution method. Microdilution methods were performed using procedures similar to those described in the National Committee for Clinical Laboratory Standards. Methods for dilution antimicrobial susceptibility tests for bacteria that grow aerobically. Fourth edition. Approved Standard (1997). Document M7-A4.

murine red blood cells = assay: Red blood cell hemolysis; assay type: cell-based, mouse; conditions: for Hemolysis HD50: red cells of murine
Summary of the method: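 Washed murine erythrocytes at 5% in saline with 10% FBS were exposed to serial peptide dilutions for 30 min at 37° C. Supernatant absorbance at 560 nm was read, with saline as 0% and 1% Triton X-100 as 100% hemolysis.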

[2] = tested on: vancomycin-resistant Enterococus faecalis (VRE)(ATCC 51575); assay type: cell-based, Enterococcus faecalis; set-up: key to VRE (in vitro activity): peptide concentration in μg/ml (broth dilution assay); conditions: for VRE MIC: ATCC 51575; for VRE (in vitro activity): Table 9, media a: AM-3
Summary of the method: as §1

[3] = tested on: Bacillus cereus ATCC 11778; assay type: cell-based
Description: as §2, §3, §4, §5, §6

[4] = tested on: Streptococcus pneumoniae (ATCC 6301); assay type: cell-based
Description: as §2, §3, §4, §5, §6

Structure (SMILES)	MRSA MIC [1] [µg/mL]	MRSA (in vitro activity) [1]	E. coli MIC (E. coli JM109(DE3)) [µg/mL]	RBC Hemolysis (HD50) (murine red blood cells)	Hemolysis HD50 (murine red blood cells) [µg/mL]	VRE MIC [2] [µg/mL]	VRE (in vitro activity) [2]	B. cerius MIC [3] [µg/mL]	S. pneum. MIC [4] [µg/mL]
CC(C)C[C@H]1NC(=O)[C@H](Cc2c[nH]c3ccccc23)NC(=O)[C@@H](CCCCN)NC(=O)[C@H](CCCNC(=N)N)NC(=O)[C@@H](CCCNC(=N)N)NC(=O)[C@H](Cc2c[nH]c3ccccc23)NC(=O)[C@@H](CC(C)C)NC(=O)[C@H](CCC(=O)O)NC1=O [SEQ ID NO:109, [RRKWLELW]] (cyclo([dR]R[dK]W[dL]E[dL]W))	80	80	40	100	100	100	100	195	100
CC(C)C[C@@H](NC(=O)[C@H](Cc1c[nH]c2ccccc12)NC(=O)[C@@H](CC(C)C)NC(=O)[C@H](Cc1c[nH]c2ccccc12)NC(=O)[C@@H](CCCCN)NC(=O)[C@H](CCCNC(=N)N)NC(=O)[C@H](N)CCCNC(=N)N)C(=O)N[C@@H](Cc1c[nH]c2ccccc12)C(N)=O [SEQ ID NO:135, H-RRKWLWLW-NH2] (H-[dR]R[dK]W[dL]W[dL]W-NH2)	20		4		100	100		19	40
CC(C)C[C@@H](N)C(=O)N[C@@H](Cc1c[nH]c2ccccc12)C(=O)N[C@H](CCCNC(=N)N)C(=O)N[C@@H](CCCNC(=N)N)C(=O)N[C@H](CCCCN)C(=O)N[C@@H](Cc1c[nH]c2ccccc12)C(=O)N[C@H](CC(C)C)C(=O)N[C@@H](Cc1c[nH]c2ccccc12)C(N)=O [SEQ ID NO:137, H-LWRRKWLW-NH2] (H-[dL]W[dR]R[dK]W[dL]W-NH2)	5		4		100	40		9	20
CC(C)C[C@H]1NC(=O)[C@H](Cc2c[nH]c3ccccc23)NC(=O)[C@@H](CCCCN)NC(=O)[C@H](CCCNC(=N)N)NC(=O)[C@@H](CCCNC(=N)N)NC(=O)[C@H](Cc2c[nH]c3ccccc23)NC(=O)[C@@H](CC(C)C)NC(=O)[C@H](CCCCN)NC1=O [SEQ ID NO:111, [RRKWLKLW]] (cyclo([dR]R[dK]W[dL]K[dL]W))	12	12	6	100	100	80	80	23	25
CC(C)C[C@@H](NC(=O)[C@H](Cc1c[nH]c2ccccc12)NC(=O)[C@@H](CC(C)C)NC(=O)[C@H](Cc1c[nH]c2ccccc12)NC(=O)[C@@H](CCCCN)NC(=O)[C@H](CCCCN)NC(=O)[C@H](N)CCCCN)C(=O)N[C@@H](Cc1c[nH]c2ccccc12)C(N)=O [SEQ ID NO:134, H-KKKWLWLW-NH2] (H-[dK]K[dK]W[dL]W[dL]W-NH2)	30		3		100	100		19	80
CC(C)C[C@H]1NC(=O)[C@H](Cc2c[nH]c3ccccc23)NC(=O)[C@@H](CCCNC(=N)N)NC(=O)[C@H](CCCNC(=N)N)NC(=O)[C@@H](CC(C)C)NC(=O)[C@H](Cc2c[nH]c3ccccc23)NC1=O [SEQ ID NO:115, [RRWLWL]] (cyclo(R[dR]W[dL]W[dL]))	40	40	5	90	90	100	100	24	12
